In BindingDB's records for doi:10.7270/Q2M043S8 (University of Pittsburgh, 2006):

Target: T1, Dual specificity protein phosphatase 6 (Rattus norvegicus, UniProt Q64346)
T1 sequence (Q64346 whole entry): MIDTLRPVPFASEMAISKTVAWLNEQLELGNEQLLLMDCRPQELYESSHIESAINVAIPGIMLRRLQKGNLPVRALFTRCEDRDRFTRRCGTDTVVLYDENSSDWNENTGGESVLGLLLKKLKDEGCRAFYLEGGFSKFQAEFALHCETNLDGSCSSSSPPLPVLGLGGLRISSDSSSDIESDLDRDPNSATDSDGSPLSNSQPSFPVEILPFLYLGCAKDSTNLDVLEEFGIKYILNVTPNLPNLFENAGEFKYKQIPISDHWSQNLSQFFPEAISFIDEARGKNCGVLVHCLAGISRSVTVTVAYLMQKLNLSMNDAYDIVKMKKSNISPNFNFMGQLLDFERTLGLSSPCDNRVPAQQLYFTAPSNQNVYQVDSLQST
Test: MKP-3 phosphatase inhibition with catalase present, dose response, biochemical, rat DUSP6, catalase added, probe assessment (AID 564)

Structure (SMILES) | IC50
Cc1ccc(C)n1-c1cccc(C(=O)O)c1 | > 50 µM
O=C(Nc1ccc2nc(-c3ccco3)c(-c3ccco3)nc2c1)N1CCCCCC1 | > 50 µM
CCCCCC#CCC#CCC#CCC#CCCCC(=O)O | > 50 µM
Cn1ncnc2c(=O)n(C)c(=O)nc1-2 | > 50 µM
[O-]/[N+](=C\c1ccncc1)c1ccccc1 | > 50 µM
O=C1C=Cc2ccccc2C1=O [1,2-dihydronaphthalene-1,2-dione] | > 50 µM
Cc1nc2cc(-c3cccc(F)c3)nn2c(C)c1CCC(=O)N1CCC2(CC1)OCCO2 [1-(1,4-dioxa-8-azaspiro[4.5]decan-8-yl)-3-[2-(3-fluorophenyl)-5,7-dimethyl-6-pyrazolo[1,5-a]pyrimidinyl]-1-propanone] | > 50 µM
CCn1nc(-c2ccccc2)nc2c(=O)n(C)c(=O)nc1-2 [1-Ethyl-6-methyl-3-phenyl-1H-pyrimido[5,4-e][1,2,4]triazine-5,7-dione] | > 50 µM
Cc1cc(C)n2c(SCC(=O)N3CCN(S(=O)(=O)c4ccc(Cl)cc4)CC3)nnc2n1 [1-[4-(4-chlorophenyl)sulfonyl-1-piperazinyl]-2-[(5,7-dimethyl-[1,2,4]triazolo[4,3-a]pyrimidin-3-yl)thio]ethanone] | > 50 µM
[O-]/[N+](=C\c1ccc(OC(F)F)cc1)c1ccccc1 [1-[4-(difluoromethoxy)phenyl]-N-phenylmethanimine oxide] | > 50 µM
CCCCn1c(SCC(=O)c2ccc(OC)cc2OC)nc2cc(S(N)(=O)=O)ccc21 [1-butyl-2-[2-(2,4-dimethoxyphenyl)-2-oxidanylidene-ethyl]sulfanyl-benzimidazole-5-sulfonamide] | > 50 µM
CCn1nc(-c2cccs2)nc2c(=O)n(C)c(=O)nc1-2 [1-ethyl-6-methyl-3-thiophen-2-yl-pyrimido[5,4-e][1,2,4]triazine-5,7-dione] | > 50 µM
O=C(Nc1ccccc1)c1ccc2nc(-c3ccco3)c(-c3ccco3)nc2c1 [2,3-di-2-furyl-N-phenyl-6-quinoxalinecarboxamide] | > 50 µM
CC(C)Cn1c(N)c(C(=O)COC(=O)c2cc(-c3ccco3)nc3ccccc23)c(=O)n(C)c1=O [2-(2-furanyl)-4-quinolinecarboxylic acid [2-[4-amino-1-methyl-3-(2-methylpropyl)-2,6-dioxo-5-pyrimidinyl]-2-oxoethyl] ester] | > 50 µM
CCOc1ccc(-c2cc3nc(C4CCN(C(=O)OC(C)(C)C)CC4)c(C(=O)O)cn3n2)cc1 [2-(4-ethoxyphenyl)-5-[1-[(2-methylpropan-2-yl)oxy-oxomethyl]-4-piperidinyl]-6-pyrazolo[1,5-a]pyrimidinecarboxylic acid] | > 50 µM
COc1ccc(-c2cc3nc(C4CCN(C(=O)OC(C)(C)C)CC4)c(C(=O)O)cn3n2)cc1 [2-(4-methoxyphenyl)-5-[1-[(2-methylpropan-2-yl)oxy-oxomethyl]-4-piperidinyl]-6-pyrazolo[1,5-a]pyrimidinecarboxylic acid] | > 50 µM
Cc1cccc(NC(=O)c2cc(NC(=O)C3CCCCC3C(=O)O)ccc2N2CCCCC2)c1 (configuration not stated) [2-({[3-{[(3-methylphenyl)amino]carbonyl}-4-(1-piperidinyl)phenyl]amino}carbonyl)cyclohexanecarboxylic acid] | > 50 µM
Cc1ccc(/C=C/C2=Cc3c(sc(NC(=O)CSc4nnc(N)[nH]4)c3C#N)C(C)(C)C2)o1 [2-[(5-azanyl-1H-1,2,4-triazol-3-yl)sulfanyl]-N-[3-cyano-7,7-dimethyl-5-[(E)-2-(5-methylfuran-2-yl)ethenyl]-6H-1-benzothiophen-2-yl]ethanamide] | > 50 µM
CCCCNC(=O)c1c(N)n(CCCOC)c2nc3ccccc3nc12 [2-amino-N-butyl-1-(3-methoxypropyl)-3-pyrrolo[3,2-b]quinoxalinecarboxamide] | > 50 µM

Structure (SMILES) | IC50
N#Cc1c(N)sc(=S)c2c1CCN(Cc1ccccc1)C2 [3-Amino-7-benzyl-1-thioxo-5,6,7,8-tetrahydro-1H-thiopyrano[3,4-c]pyridine-4-carbonitrile] | 47.9 µM
O=C1C=C(NCc2ccc(Cl)c(Cl)c2)CC1 [3-[(3,4-dichlorobenzyl)amino]cyclopent-2-en-1-one] | > 50 µM
CCCSc1nnc(NC(=O)c2sc3nc(-c4cccs4)ccc3c2N)s1 [3-amino-N-(5-propylsulfanyl-1,3,4-thiadiazol-2-yl)-6-thiophen-2-ylthieno[2,3-b]pyridine-2-carboxamide] | > 50 µM
O=C1Nc2ccccc2SC(c2ccccc2)C1O (configuration not stated) [3-hydroxy-2-phenyl-2,3-dihydro-1,5-benzothiazepin-4(5H)-one] | > 50 µM
CC(C)(C)N1C(=O)Cc2c1nc(N)c1c(N)nc(N3CCCCC3CO)c(C#N)c21 (configuration not stated) [5,6-bis(azanyl)-3-tert-butyl-8-[2-(hydroxymethyl)piperidin-1-yl]-2-oxidanylidene-1H-pyrrolo[2,3-c][2,7]naphthyridine-9-carbonitrile] | > 50 µM
COc1cc(/C=C(/C#N)c2ccc(F)cc2)ccc1OCc1ccc(C(=O)O)o1 [5-({4-[2-cyano-2-(4-fluorophenyl)vinyl]-2-methoxyphenoxy}methyl)-2-furoic acid] | > 50 µM
COc1ccc(Br)cc1C=c1sc2nc(-c3ccco3)nn2c1=O [5-[(5-bromanyl-2-methoxy-phenyl)methylidene]-2-(furan-2-yl)-[1,3]thiazolo[3,2-b][1,2,4]triazol-6-one] | > 50 µM
CCOc1cc(/C=C(/C#N)c2ccc(F)cc2)ccc1OCc1ccc(C(=O)O)o1 [5-[[4-[(E)-2-cyano-2-(4-fluorophenyl)ethenyl]-2-ethoxyphenoxy]methyl]furan-2-carboxylic acid] | > 50 µM
N#Cc1c(NC(=O)c2ccc(Br)o2)n(-c2ccccc2)c2nc3ccccc3nc12 [5-bromanyl-N-(3-cyano-1-phenyl-pyrrolo[3,2-b]quinoxalin-2-yl)furan-2-carboxamide] | > 50 µM
Cc1cccc(N2CCN(C(=O)Cc3c(C(=O)O)[nH]c4ccc(Cl)cc34)CC2)c1C [5-chloranyl-3-[2-[4-(2,3-dimethylphenyl)piperazin-1-yl]-2-oxidanylidene-ethyl]-1H-indole-2-carboxylic acid] | > 50 µM
CCCCCNC(=O)c1ccc2c(=O)[nH]c3c(C(=O)NCC4CCCO4)sc(=S)n3c2c1 (configuration not stated) [5-oxo-N3-(2-oxolanylmethyl)-N8-pentyl-1-sulfanylidene-4H-thiazolo[3,4-a]quinazoline-3,8-dicarboxamide] | > 50 µM
Cc1nc2c(C(=O)NCCC3=CCCCC3)c[nH]n2c(=O)c1Cl [6-chloro-N-(2-cyclohex-1-en-1-ylethyl)-7-hydroxy-5-methylpyrazolo[1,5-a]pyrimidine-3-carboxamide] | > 50 µM
O=C(c1cccs1)c1no[n+]([O-])c1C(=O)c1cccs1 [(5-oxidanidyl-4-thiophen-2-ylcarbonyl-1,2,5-oxadiazol-5-ium-3-yl)-thiophen-2-yl-methanone] | > 50 µM
Nc1c(N2CCCC2)cc(Cl)c2nonc12 [(7-chloro-5-pyrrolidino-benzofurazan-4-yl)amine] | > 50 µM
[O-]/[N+](=C/c1ccc(F)cc1)c1ccccc1 [(E)-(4-fluorobenzylidene)(phenyl)azane oxide] | > 50 µM
CC1=C(/C=C/C(C)=C/C=C/C(C)=C/C(=O)O)C(C)(C)CCC1 [ALL-TRANS-RETINOIC ACID] | > 50 µM
CC(=O)[C@@H]1[C@@H]2C(=O)N(c3ccc(F)c(Cl)c3)C(=O)[C@@H]2C2c3ccccc3C=CN21 (some centres not stated) [MLS000040594] | > 50 µM
COCCCn1c(N)c(C(=O)NCCC(C)C)c2nc3ccccc3nc21 [MLS000041744] | > 50 µM
CCn1c(SCC(=O)Nc2ccc3c(c2)c2ccccc2n3CC)nnc1-c1ccco1 [MLS000050867] | > 50 µM

Structure (SMILES) | IC50
O=C1C(=C2C(=O)c3ccccc3C2=O)Nc2ccccc21 [MLS000071738] | > 50 µM
COc1ccc(-n2c(NC(=O)c3ccco3)c(C#N)c3nc4ccccc4nc32)cc1 [MLS000079925] | > 50 µM
COc1ccc(Cn2c(C)nc3c(c2=O)c2nc4ccccc4nc2n3Cc2ccco2)cc1 [MLS000079944] | 47.8 µM
Cc1ccc(-c2csc(NC(=O)c3ccno3)n2)cc1 [MLS000081820] | > 50 µM
CC(C)Sc1nc2sc3c(c2c2nnc(SCC(=O)NCc4ccco4)n12)CCCC3 [MLS000082957] | > 50 µM
Nc1nc2c(s1)CCc1c-2cnn1-c1ccccc1 [MLS000085948] | > 50 µM
Cc1cc(NC(=O)c2ccc(S(=O)(=O)N3CCCC3)cc2)nc2c1c(=O)oc1ccccc12 [MLS000091355] | > 50 µM
FC(F)(F)c1ccc(N2CCOCC2)c(Nc2nc3ccccc3n3cnnc23)c1 [MLS000093276] | > 50 µM
COC(=O)c1ccccc1NC(=O)CN1C(=O)C2CCCN2c2ncc(Cl)cc21 (configuration not stated) [MLS000094302] | > 50 µM
CCc1ccc(NC(=O)CSc2nc3ccccc3c(=O)n2CCN2CCOCC2)cc1 [MLS000095236] | > 50 µM
Cc1c(N=c2c(=O)c3ccccc3c2=O)c(=O)n(-c2ccccc2)n1C [MLS000105950] | > 50 µM
CCOc1ccc2noc3c2c1C(=O)c1ccccc1-3 [MLS000106837] | > 50 µM
COc1ccc2noc3c2c1C(=O)c1ccccc1-3 [MLS000106874] | > 50 µM
CCOC(=O)c1ccc2c(c1)C1C=CCC1C(C(=O)O)N2 (configuration not stated) [MLS-0025126.0001] | > 50 µM
O=C(NC1(O)C(=O)c2ccccc2C1=O)c1ccccc1 [N-(2-hydroxy-1,3-dioxo-2-indenyl)benzamide] | > 50 µM
O=C(OC1CCCCC1)c1ccc2c(c1)C1C=CCC1C(C(=O)O)N2 (configuration not stated) [SMR000019385] | > 50 µM
O=C1c2ccccc2-c2onc3ccc(NCCCn4ccnc4)c1c23 [SMR000044769] | 47.6 µM
CCCCn1c(NC(=O)c2ccccc2)c(C#N)c2nc3ccccc3nc21 [SMR000060333] | > 50 µM
N#Cc1c(N2CCCC2)nc(N)c2c(N)nc(N3CCCC3)cc12 [SMR000061605] | > 50 µM
